Data on ten molecules can be found in US11787785B2 (NOVARTIS AG, priority 2021, dated 2023).

Broadly, the pEC50 is −log10 of the EC50, conventionally taken in molar units.

Assay [1] concerns HbF. To be noted: ex vivo, human primary erythroid cells; cited from earlier work.
Assay [2] has as its system HbF. To be noted: in vivo; cited from earlier work.
Assay [3] concerns the target T1, WIZ protein (HiBit-WIZ fusion protein) (Homo sapiens, UniProt O95785+Q96SW2).
T1 construct: expressed in transfected cells
Put plainly: Quantification of WIZ protein levels in HiBit tag fusion protein assay (WIZ HiBit assay in 293T cells). Format: cell-based. To be noted: for Dmax / remaining activity / Dmax at 25 µM / remaining activity at 25 µM: HEK-293T; for Dmax / Dmax at 25 µM: read-out: % degradation of WIZ (100 − Amax); for remaining activity / remaining activity at 25 µM: read-out: WIZ Amax; for DC50: WIZ HiBit assay in 293T cells, 10-point, 5-fold dose response, highest concentration 25 μM, about 18 hours, read-out: WIZ AC50; for Dmax at 25 µM: 100 − Amax; for Dmax at 25 µM / remaining activity at 25 µM: 293T cells; for remaining activity at 25 µM: DMSO-normalized, curve-fitted percentage of WIZ-HiBit remaining at 25 uM. Also noted: remaining activity / Dmax: dose or concentration left out as unconfirmed. A digest of the protocol:
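Luminescence after LgBit complementation quantified remaining HiBit-WIZ in lysates of single-copy stable 293T lines. Cells dosed ~18 h at 37 °C with 10-point, 5-fold dilutions (highest 25 μM); DMSO set to 100%, fitted curve gave % remaining at 25 μM (Amax).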
A general note: HiBiT is a short tag that completes a luciferase, so light tracks the accessible tagged protein.

A further assay deals with Fetal Hemoglobin (HbF). Put plainly: Small molecule HbF induction assay (mPB CD34+ cells erythroid differentiated, flow cytometry). Format: cell-based. To be noted: Homo sapiens, 168 h; for Emax: 7 days with compound, baseline DMSO approximately 30-40%, read-out: HbF Amax (highest percentage of cells staining positive for HbF in the fitted dose-response curve); for pEC50: erythroid differentiated in presence of compound for 7 days, flow cytometry. Here is the method:
Cryopreserved primary human CD34^+ hematopoietic stem and progenitor cells were obtained from AllCells, LLC. The CD34^+ cells were isolated from the peripheral blood of healthy donors after mobilization by administration of granulocyte colony-stimulating factor. Cells were differentiated ex vivo toward the erythroid lineage using a 2-phase culture method. In the first phase, cells were cultured in StemSpan™ Serum-Free Expansion Media (SFEM) ([…] Technologies Inc.) supplemented with rhSCF (50 ng/mL, Peprotech®, Inc.), rhIL-6 (50 ng/mL, Peprotech®, Inc.), rhIL-3 (50 ng/mL, Peprotech®, Inc.), and rhFlt3L (50 ng/mL, Peprotech®, Inc.), and 1× antibiotic-antimycotic (Life Technologies, Thermo Fisher Scientific) for 6 days at 37° C. with 5% CO2. During the second phase, cells were cultured in erythroid differentiation media at 5,000 cells/mL in the presence of compound for 7 days at 37° C. with 5% CO2. Erythroid Differentiation Media is comprised of IMDM (Life Technologies) supplemented with insulin (10 μg/mL, Sigma Aldrich), heparin (2 U/mL Sigma Aldrich), holo-transferrin (330 μg/mL, Sigma Aldrich), human serum AB (5%, Sigma Aldrich), hydrocortisone (1 μM, […] Technologies), rhSCF (100 ng/mL, Peprotech®, Inc.), rhIL-3 (5 ng/mL, Peprotech®, Inc.), rhEPO (3 U/mL, Peprotech®, Inc.), and 1× antibiotic-antimycotic. All compounds were dissolved and diluted into dimethylsulfoxide (DMSO) and were added to culture media for a final concentration of 0.3% DMSO for testing in a 7-point, 1:3 dilution series starting at 30 uM.
Staining and Flow Cytometry
For viability analysis, samples were washed and resuspended in phosphate-buffered saline (PBS) and stained with LIVE/DEAD™ Fixable Violet Dead Cell Stain Kit (Life Technologies, L34963) for 20 minutes. Cells were then washed again with PBS and resuspended in PBS supplemented with 2% fetal bovine serum (FBS), and 2 mM EDTA to prepare for cell surface marker analysis. Cells were labeled with allophycocyanin-conjugated CD235a (1:100, BD Biosciences, 551336) and Brilliant Violet-conjugated CD71 (1:100, BD Biosciences, 563767) antibodies for 20 minutes. For analysis of cytoplasmic Fetal Hemoglobin (HbF), cells were fixed and permeabilized using the Fixation (BioLegend®, 420801) and Permeabilization Wash (BioLegend®, 421002) Buffers according to the manufacturer's protocol. During the permeabilization step, cells were stained with phycoerythrin-conjugated or FITC-conjugated HbF-specific antibody (1:10-1:25, Invitrogen™, MHFH04-4) for 30 minutes. Stained cells were washed with phosphate-buffered saline before analysis on the FACSCanto™ II flow cytometer or LSRFortessa™ (BD Biosciences). Data analysis was performed with FIowJo™ Software (BD Biosciences).
HbF Induction Activity of Compounds (Table 2)
mPB CD34+ cells were expanded for 6 days, then erythroid differentiated in the presence of compound for 7 days. Cells were fixed, stained and analyzed by flow cytometry. […] HbF Amax=the highest percentage of cells staining positive for HbF (% HbF+ cells) in the fitted dose-response curve. The baseline % HbF+ cells for DMSO-treated cells is approximately 30-40%.
In general terms: A flow cytometer gives signals particle by particle.

pEC50: −log10 of the molar value. Like-named read-outs stand apart in the source and are kept apart here.

T1 sequence (O95785 whole entry, the tested form may be a part): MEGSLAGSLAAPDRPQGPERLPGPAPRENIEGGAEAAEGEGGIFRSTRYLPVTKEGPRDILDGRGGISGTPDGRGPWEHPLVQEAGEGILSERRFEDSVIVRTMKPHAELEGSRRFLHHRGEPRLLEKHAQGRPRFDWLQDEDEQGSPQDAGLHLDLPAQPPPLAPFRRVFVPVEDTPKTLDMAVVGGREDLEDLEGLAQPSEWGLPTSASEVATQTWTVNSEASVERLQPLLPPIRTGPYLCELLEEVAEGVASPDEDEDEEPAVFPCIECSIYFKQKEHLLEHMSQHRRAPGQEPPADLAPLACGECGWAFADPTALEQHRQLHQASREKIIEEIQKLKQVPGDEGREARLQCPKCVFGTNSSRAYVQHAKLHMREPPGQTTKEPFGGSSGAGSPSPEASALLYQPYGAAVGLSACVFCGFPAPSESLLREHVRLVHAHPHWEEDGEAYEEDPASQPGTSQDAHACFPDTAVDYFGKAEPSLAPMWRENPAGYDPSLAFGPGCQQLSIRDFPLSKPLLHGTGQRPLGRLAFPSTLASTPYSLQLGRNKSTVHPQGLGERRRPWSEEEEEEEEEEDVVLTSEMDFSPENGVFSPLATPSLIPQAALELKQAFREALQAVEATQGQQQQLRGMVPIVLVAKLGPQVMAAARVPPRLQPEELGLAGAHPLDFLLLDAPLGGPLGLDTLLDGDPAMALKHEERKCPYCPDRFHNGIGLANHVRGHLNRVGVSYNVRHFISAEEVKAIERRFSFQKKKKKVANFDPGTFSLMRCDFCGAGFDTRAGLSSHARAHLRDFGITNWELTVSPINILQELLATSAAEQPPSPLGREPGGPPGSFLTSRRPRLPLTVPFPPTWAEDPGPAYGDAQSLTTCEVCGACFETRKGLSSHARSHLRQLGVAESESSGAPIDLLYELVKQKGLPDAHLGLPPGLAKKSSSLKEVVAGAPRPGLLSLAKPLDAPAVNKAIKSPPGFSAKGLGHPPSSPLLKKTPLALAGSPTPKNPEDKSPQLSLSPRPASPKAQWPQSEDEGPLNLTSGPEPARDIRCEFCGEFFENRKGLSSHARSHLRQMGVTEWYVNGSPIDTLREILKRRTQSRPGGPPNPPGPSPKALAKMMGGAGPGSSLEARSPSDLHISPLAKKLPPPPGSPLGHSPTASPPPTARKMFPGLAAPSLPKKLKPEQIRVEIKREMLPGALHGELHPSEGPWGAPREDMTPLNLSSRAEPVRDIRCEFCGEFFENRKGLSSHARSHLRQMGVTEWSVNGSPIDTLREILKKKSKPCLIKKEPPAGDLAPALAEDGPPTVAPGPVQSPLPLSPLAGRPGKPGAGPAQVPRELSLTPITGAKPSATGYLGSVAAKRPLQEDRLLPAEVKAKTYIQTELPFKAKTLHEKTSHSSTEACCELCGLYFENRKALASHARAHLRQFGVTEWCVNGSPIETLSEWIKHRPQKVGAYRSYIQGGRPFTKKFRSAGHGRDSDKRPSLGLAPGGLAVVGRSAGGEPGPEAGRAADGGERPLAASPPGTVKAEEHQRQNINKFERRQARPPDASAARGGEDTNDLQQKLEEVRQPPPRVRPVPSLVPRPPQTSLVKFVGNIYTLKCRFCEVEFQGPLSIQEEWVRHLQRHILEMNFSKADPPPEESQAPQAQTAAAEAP
T1 sequence (Q96SW2 whole entry, the tested form may be a part): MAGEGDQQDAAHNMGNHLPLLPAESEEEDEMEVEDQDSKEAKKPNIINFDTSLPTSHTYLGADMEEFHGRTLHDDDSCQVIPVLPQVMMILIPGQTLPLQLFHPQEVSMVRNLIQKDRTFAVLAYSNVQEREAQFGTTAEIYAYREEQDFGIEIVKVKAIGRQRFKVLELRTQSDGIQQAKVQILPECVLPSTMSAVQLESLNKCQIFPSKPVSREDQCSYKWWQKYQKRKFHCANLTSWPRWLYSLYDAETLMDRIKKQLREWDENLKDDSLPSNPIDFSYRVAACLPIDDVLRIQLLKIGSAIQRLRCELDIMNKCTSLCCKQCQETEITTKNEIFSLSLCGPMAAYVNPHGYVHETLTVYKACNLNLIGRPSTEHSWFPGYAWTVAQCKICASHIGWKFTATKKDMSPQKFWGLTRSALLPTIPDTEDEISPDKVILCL
T1 sequence (Q16531 whole entry partner, the tested form may be a part): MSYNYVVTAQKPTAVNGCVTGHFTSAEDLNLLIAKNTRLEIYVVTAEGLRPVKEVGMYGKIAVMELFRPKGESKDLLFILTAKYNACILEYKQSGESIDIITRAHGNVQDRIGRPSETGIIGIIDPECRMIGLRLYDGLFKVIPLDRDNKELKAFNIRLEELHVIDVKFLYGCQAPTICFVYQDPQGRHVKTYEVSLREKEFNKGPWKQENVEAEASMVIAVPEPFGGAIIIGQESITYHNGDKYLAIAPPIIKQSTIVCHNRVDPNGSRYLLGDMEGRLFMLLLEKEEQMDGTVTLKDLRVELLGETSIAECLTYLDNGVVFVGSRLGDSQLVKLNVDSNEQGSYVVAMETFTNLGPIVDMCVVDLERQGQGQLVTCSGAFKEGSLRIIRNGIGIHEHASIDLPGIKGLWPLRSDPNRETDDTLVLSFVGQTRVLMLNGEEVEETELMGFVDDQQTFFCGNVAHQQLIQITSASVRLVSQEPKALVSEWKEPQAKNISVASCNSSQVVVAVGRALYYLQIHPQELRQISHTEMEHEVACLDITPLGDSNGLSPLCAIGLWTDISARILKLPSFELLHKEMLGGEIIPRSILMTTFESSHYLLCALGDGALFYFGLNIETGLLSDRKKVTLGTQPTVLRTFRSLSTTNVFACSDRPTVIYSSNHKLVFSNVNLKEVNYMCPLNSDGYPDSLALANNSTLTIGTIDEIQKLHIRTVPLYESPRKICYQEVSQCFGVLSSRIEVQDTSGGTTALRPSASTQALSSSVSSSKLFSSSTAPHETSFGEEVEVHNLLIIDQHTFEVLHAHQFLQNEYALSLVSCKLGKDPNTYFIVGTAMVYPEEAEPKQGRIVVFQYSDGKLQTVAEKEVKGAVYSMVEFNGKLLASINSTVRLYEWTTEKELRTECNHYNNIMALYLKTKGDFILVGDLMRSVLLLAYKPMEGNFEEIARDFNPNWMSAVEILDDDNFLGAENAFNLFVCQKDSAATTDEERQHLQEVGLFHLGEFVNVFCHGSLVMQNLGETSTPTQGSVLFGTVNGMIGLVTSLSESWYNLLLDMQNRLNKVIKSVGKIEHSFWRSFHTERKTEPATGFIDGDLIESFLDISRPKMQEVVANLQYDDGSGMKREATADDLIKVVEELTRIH

`Nc1cccc2c1CN(C1CCC(=O)NC1=O)C2=O` (centres unmarked) [lenalidomide]: the HbF induction result in the assay with HbF [1] and in the assay with HbF [2] was “induce HbF” throughout.
With `CCS(=O)(=O)N1CC[C@@H](Cc2ccn3ncc(N4CCC(=O)NC4=O)c3c2)C[C@@H]1C` [Example 283, 1-(5-(((2S,4R)-1-(ethylsulfonyl)-2-methylpiperidin-4-yl)methyl)pyrazolo[1,5-a]pyridin-3-yl)dihydropyrimidine-2,4(1H,3H)-dione], in assay [3], the Dmax amounted to 80%, the remaining activity is 19% and the DC50 amounted to 29 nM. In the assay on Fetal Hemoglobin (HbF), the Emax was 61% and the pEC50 was 6.90.
`C[C@H]1CN(Cc2ccn3ncc(N4CCC(=O)NC4=O)c3c2)CCN1CC1CCC(F)(F)CC1` [Example 207]: in assay [3], the Dmax at 25 µM stood at 86%, the remaining activity at 25 µM was 14% and the DC50 turned out to be 14 nM. Moreover, in the assay on Fetal Hemoglobin (HbF), the Emax came to 85% and the pEC50 was 7.05.
In the case of `C[C@H]1C[C@H](Cc2ccn3ncc(N4CCC(=O)NC4=O)c3c2)CCN1CC1CCOCC1` [Example 142], in assay [3], the Dmax at 25 µM was determined as 89%, the remaining activity at 25 µM was found to be 11% and the DC50 is 11 nM. Besides, in the assay on Fetal Hemoglobin (HbF), the Emax worked out at 89% and the pEC50 was 7.42.
For the molecule `Nc1cccc2c1C(=O)N(C1CCC(=O)NC1=O)C2=O` (centres unmarked) [pomalidomide], the HbF induction result in the assay with HbF [1] and with HbF [2] was “induce HbF” in each case.
Consider `CC(C)CN1CCC(Cc2ccn3ncc(N4CCC(=O)NC4=O)c3c2)CC1` [Example 109, 1-(5-((1-isobutylpiperidin-4-yl)methyl)pyrazolo[1,5-a]pyridin-3-yl)dihydropyrimidine-2,4(1H,3H)-dione], for which, in assay [3], the Dmax at 25 µM turned out to be 82%, the remaining activity at 25 µM worked out at 18% and the DC50 came out at 39 nM. In the assay on Fetal Hemoglobin (HbF), the Emax is 77% and the pEC50 is 6.89.
Take `C[C@H]1C[C@H](Cc2ccn3ncc(N4CCC(=O)NC4=O)c3c2)CCN1CC1CCC(F)(F)CC1` [Example 141, 1-(5-(((2S,4R)-1-((4,4-difluorocyclohexyl)methyl)-2-methylpiperidin-4-yl)methyl)pyrazolo[1,5-a]pyridin-3-yl)dihydropyrimidine-2,4(1H,3H)-dione]: in assay [3], the Dmax at 25 µM amounted to 91%, the remaining activity at 25 µM is 9% and the DC50 turned out to be 2 nM. Further, in the assay on Fetal Hemoglobin (HbF), the Emax turned out to be 90% and the pEC50 was 8.22.
In the case of `C[C@H]1C[C@H](Cc2ccn3ncc(N4CCC(=O)NC4=O)c3c2)CCN1C(=O)C1CC1` [Example 287, 1-(5-(((2S,4R)-1-(cyclopropanecarbonyl)-2-methylpiperidin-4-yl)methyl)pyrazolo[1,5-a]pyridin-3-yl)dihydropyrimidine-2,4(1H,3H)-dione], in assay [3], the Dmax was determined as 81%, the remaining activity worked out at 19% and the DC50 came out at 15 nM. Further, in the assay on Fetal Hemoglobin (HbF), the Emax was 63% and the pEC50 was 7.22.
Consider `CO[C@H]1CC[C@H](CN2CCN(Cc3ccn4ncc(N5CCC(=O)NC5=O)c4c3)C[C@@H]2C)CC1` [Example 210, 1-(5-(((S)-4-(((1r,4S)-4-methoxycyclohexyl)methyl)-3-methylpiperazin-1-yl)methyl)pyrazolo[1,5-a]pyridin-3-yl)dihydropyrimidine-2,4(1H,3H)-dione], for which, in assay [3], the Dmax at 25 µM is 86%, the remaining activity at 25 µM was 14% and the DC50 came out at 16 nM. Further, in the assay on Fetal Hemoglobin (HbF), the Emax was 86% and the pEC50 was 7.19.
On to `O=C1CCN(c2cnn3ccc(CN4CCN(CC5CCOCC5)CC4)cc23)C(=O)N1` [Example 160], for which, in assay [3], the Dmax at 25 µM amounted to 82%, the remaining activity at 25 µM stood at 18% and the DC50 turned out to be 45 nM. In the assay with Fetal Hemoglobin (HbF), the Emax was 84% and the negative-log EC50 (pEC50) is 6.00.
